Source: patent US20140011799A1 (Bristol-Myers Squibb Company, priority 2012, published 2014)

Key:
hepatic lipase (HL) = target: T1, hepatic lipase (HL) (Homo sapiens, UniProt P11150); assay: Hepatic lipase (HL) enzymatic assay, fluorescent substrate A10070 in DMPG vesicles; format: biochemical; settings: HL partially purified from conditioned media of COS cells; compound preincubated 30 min at 37° C; read-out: HL IC50
T1 construct: made in house; host or cells: COS cells (conditioned medium, partially purified)
T1 sequence (P11150 23-499): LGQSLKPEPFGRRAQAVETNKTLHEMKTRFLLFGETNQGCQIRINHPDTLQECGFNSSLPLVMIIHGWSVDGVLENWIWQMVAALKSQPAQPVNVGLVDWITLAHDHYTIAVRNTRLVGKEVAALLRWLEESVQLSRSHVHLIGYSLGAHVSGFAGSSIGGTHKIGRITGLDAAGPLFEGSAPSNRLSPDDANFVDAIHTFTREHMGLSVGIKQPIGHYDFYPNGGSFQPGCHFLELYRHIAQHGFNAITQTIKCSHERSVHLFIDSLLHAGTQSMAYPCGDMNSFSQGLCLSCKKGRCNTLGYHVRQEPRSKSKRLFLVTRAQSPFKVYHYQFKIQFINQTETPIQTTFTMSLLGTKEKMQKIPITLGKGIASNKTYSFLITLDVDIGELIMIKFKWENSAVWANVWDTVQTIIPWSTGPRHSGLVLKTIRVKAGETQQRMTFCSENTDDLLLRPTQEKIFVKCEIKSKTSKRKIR
In short: (§1)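 Vesicles prepared: A10070 dried with DMPG, resuspended in HEPES pH 8.0/NaCl/EDTA, sonicated on ice. Enzyme incubated with compound 30 min at 37° C. Reaction started with 1:10 diluted vesicles. Fluorescence (490/530 nm) followed 60 min; slope from 300–900 secs gives rate.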

Endothelial lipase (EL) = target: T2, Endothelial lipase (EL) (Homo sapiens, UniProt Q9Y5X9); assay: Endothelial lipase (EL) enzymatic assay, fluorescent substrate A10070 in DMPG vesicles; format: biochemical; settings: EL from conditioned media of HT-1080 cells; compound preincubated 30 min at 37° C; read-out: EL IC50
T2 construct: HT-1080 cells that were transformed using RAGE technology (Athersys) to overexpress endogenous EL; endogenous in cells; conditioned medium used
T2 sequence (Q9Y5X9 21-500): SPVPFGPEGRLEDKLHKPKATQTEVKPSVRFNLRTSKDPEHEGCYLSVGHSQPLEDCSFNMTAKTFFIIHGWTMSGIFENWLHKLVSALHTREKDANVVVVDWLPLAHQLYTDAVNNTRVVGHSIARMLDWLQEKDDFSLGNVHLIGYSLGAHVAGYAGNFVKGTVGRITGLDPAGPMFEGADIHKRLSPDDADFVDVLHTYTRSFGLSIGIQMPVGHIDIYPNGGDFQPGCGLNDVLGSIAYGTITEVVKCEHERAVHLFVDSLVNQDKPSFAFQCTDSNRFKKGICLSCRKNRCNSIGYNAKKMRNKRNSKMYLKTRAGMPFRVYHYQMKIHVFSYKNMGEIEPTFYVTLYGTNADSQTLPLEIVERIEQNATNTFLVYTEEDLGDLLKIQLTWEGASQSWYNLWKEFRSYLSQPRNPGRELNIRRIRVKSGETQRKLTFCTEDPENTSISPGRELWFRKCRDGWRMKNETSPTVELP
In short: as §1

Row | IC50 (hepatic lipase (HL)) [µM] | IC50 (Endothelial lipase (EL)) [µM] | Compound
1 | 0.16 | < 0.01 | CC(=O)NS(=O)(=O)Cc1nnc(C(c2nc3ccc(-c4ccccc4)cc3s2)S(C)(=O)=O)o1 (centres unmarked) [Example 169, N-(((5-((Methylsulfonyl)(6-phenyl-1,3-benzothiazol-2-yl)methyl)-1,3,4-oxadiazol-2-yl)methyl)sulfonyl)acetamide]
2 | < 0.01 | < 0.01 | CC(O)CS(=O)(=O)C(c1nnc(CNS(N)(=O)=O)o1)c1nc2ccc(-c3ccccc3)cc2s1 (centres unmarked) [Example 170, N-((5-(((2-Hydroxypropyl)sulfonyl)(6-phenyl-1,3-benzothiazol-2-yl)methyl)-1,3,4-oxadiazol-2-yl)methyl)sulfamide]
3 | 0.032 | 0.24 | CS(=O)(=O)NCc1nnc(C(c2nc3ccc(-c4ccc(F)nc4)cc3s2)S(C)(=O)=O)o1 (centres unmarked) [Example 172, N-((5-((6-(6-Fluoro-3-pyridinyl)-1,3-benzothiazol-2-yl)(methylsulfonyl)methyl)-1,3,4-oxadiazol-2-yl)methyl)methanesulfonamide]
4 | 0.058 | 0.035 | CS(=O)(=O)NCc1nnc(C(c2nc3ccc(-c4ccc(C(=O)N5CCOCC5)cc4)cc3s2)S(C)(=O)=O)o1 (centres unmarked) [Example 173, N-((5-((Methylsulfonyl)(6-(4-(4-morpholinylcarbonyl)phenyl)-1,3-benzothiazol-2-yl)methyl)-1,3,4-oxadiazol-2-yl)methyl)methanesulfonamide]
5 | 0.124 | 0.011 | Cn1cc(-c2ccc3nc(C(c4nnc(CNS(N)(=O)=O)o4)S(=O)(=O)CCC(=O)O)sc3c2)cn1 (centres unmarked) [Example 174, 3-(((6-(1-Methyl-1H-pyrazol-4-yl)-1,3-benzothiazol-2-yl)(5-((sulfamoylamino)methyl)-1,3,4-oxadiazol-2-yl)methyl)sulfonyl)propanoic acid]
6 | 0.089 | 0.012 | CCCOCCCNC(=O)Cc1nnc(C(c2nc3ccc(-c4ccc(C(=O)N5CCOCC5)cc4)cc3s2)S(C)(=O)=O)o1 (centres unmarked) [Example 175, 2-(5-((Methylsulfonyl)(6-(4-(4-morpholinylcarbonyl)phenyl)-1,3-benzothiazol-2-yl)methyl)-1,3,4-oxadiazol-2-yl)-N-(3-propoxypropyl)acetamide]
7 | 0.465 | 0.01 | CC(O)CCNC(=O)Cc1nnc(C(c2nc3ccc(-c4ccc(C(=O)N5CCOCC5)cc4)cc3s2)S(C)(=O)=O)o1 (centres unmarked) [Example 176, N-(3-hydroxybutyl)-2-(5-((methylsulfonyl)(6-(4-(4-morpholinylcarbonyl)phenyl)-1,3-benzothiazol-2-yl)methyl)-1,3,4-oxadiazol-2-yl)acetamide]
8 | 0.591 | 0.014 | CC(O)CCNC(=O)Cc1nnc(C(c2nc3ccc(-c4ccc(C(=O)N5CCOCC5)cc4)cc3s2)S(=O)(=O)Cc2ccccc2)o1 (centres unmarked) [Example 177, 2-(5-((benzylsulfonyl)(6-(4-(4-morpholinylcarbonyl)phenyl)-1,3-benzothiazol-2-yl)methyl)-1,3,4-oxadiazol-2-yl)-N-(3-hydroxybutyl) acetamide]
9 | 0.277 | < 0.01 | O=C(Cc1nnc(C(c2nc3ccc(-c4ccc(C(=O)N5CCOCC5)cc4)cc3s2)S(=O)(=O)Cc2ccccc2)o1)NCC1(O)CCC1 (centres unmarked) [Example 178, 2-(5-((benzylsulfonyl)(6-(4-(4-morpholinylcarbonyl)phenyl)-1,3-benzothiazol-2-yl)methyl)-1,3,4-oxadiazol-2-yl)-N-((1-hydroxycyclobutyl)methyl) acetamide]
10 | 0.518 | < 0.01 | CC(O)CNC(=O)Cc1nnc(C(c2nc3ccc(-c4ccc(C(=O)N5CCOCC5)cc4)cc3s2)S(=O)(=O)Cc2ccccc2)o1 (centres unmarked) [Example 179, 2-(5-((benzylsulfonyl)(6-(4-(4-morpholinylcarbonyl)phenyl)-1,3-benzothiazol-2-yl)methyl)-1,3,4-oxadiazol-2-yl)-N-(2-hydroxypropyl) acetamide]
